Test results from patent US20110212120A1, “Ykur polynucleotides and polypeptides” (VERNALIS (OXFORD) LIMITED, priority 2002, published 2011).

Target: T1, YkuR protein (Bacillus subtilis, UniProt O34916)
T1 construct: the full length ykuR gene product could be separated from internally digested gene product; made in house; host or cells: E. coli BL21 (pET24a)
Experiment: YkuR surrogate fluorometric assay (sodium hippurate substrate)
Type: biochemical, B. subtilis
Settings: purified YkuR protein expressed in E. coli; phenanthroline added at increasing concentrations; FIG. 3
Method: A fluorometric assay for YkuR and its homologues has been developed using sodium hippurate (benzoyl glycine) as a substrate. Cleavage by YkuR releases free glycine which can be detected using F-phthaldialdehyde. The assay is performed in a total volume of 100 Fl per well in black 96 well microtitre plates. 40 Fl of YkuR protein 20 Fg/ml in 10 mM Hepes pH 6.8 containing 0.5 mM dithiothreitol and 10 mM potassium chloride) is added to the appropriate wells of a 96-well plate. Appropriate concentrations of test compounds dissolved in 20 Fl of 100% DMSO are added, followed by 40 Fl of hippuric acid (250 mM in 50 mM Hepes pH 6.8 containing 0.05% Brij 35). Control wells lack either enzyme or test compound. The reactions are incubated for 1 hour at 37 EC. Following incubation 100 Fl of OPA Reagent (20 mM F-phthaldialdehyde in 50 mM borate buffer pH 9.5 containing 0.1% $-mercaptoethanol) is added to each well. The fluorescence at 460 nm is measure with an SLT Fluostar fluorometer using 355 nm excitation.
Assay using purified YkuR protein expressed in E. coli as described above. Phenanthroline, a known inhibitor of metalloprotease enzyme activity, was added at increasing concentrations to inhibit metalloenzyme activity.

T1 sequence (O34916 whole entry): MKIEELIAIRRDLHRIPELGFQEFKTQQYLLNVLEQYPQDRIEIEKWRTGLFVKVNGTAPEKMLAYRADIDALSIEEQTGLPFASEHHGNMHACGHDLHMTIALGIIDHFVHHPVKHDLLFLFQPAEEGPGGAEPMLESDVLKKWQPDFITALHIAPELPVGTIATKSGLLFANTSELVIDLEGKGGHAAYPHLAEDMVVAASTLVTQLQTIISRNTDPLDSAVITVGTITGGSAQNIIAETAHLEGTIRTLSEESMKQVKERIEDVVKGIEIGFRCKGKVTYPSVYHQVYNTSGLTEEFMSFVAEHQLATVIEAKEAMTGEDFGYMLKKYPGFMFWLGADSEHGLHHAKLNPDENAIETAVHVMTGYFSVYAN

SMILES: c1cnc2c(c1)ccc1cccnc12 [Phenanthroline]
- IC50: 96 µM
